Where two headings read alike, the source gives them in different places. Marks after values point to notes of the source that are not given here. Residues, ends and D or L forms follow the SMILES beside them. *: point of attachment. Cbz = O=C(OCc1ccccc1)*
Legend:
[1] = target: Chymotrypsin; conditions: read-out: Ki(obs), cited from earlier work
[2] = system: Chymotrypsin; assay: Binding of inhibitors to chymotrypsin; type: biochemical; conditions: for KiIH/KiICOOH: pH 7.2, ratio of Ki(obs) of peptide-H to peptide-COOH; for KiIH/KiICHO or KiIH/KiICOCHO: fold increase in binding due to aldehyde or glyoxal group
[3] = cited from earlier work; for KH1: KH1 = KH1obs/[H2O], 25 °C
[4] = system: α-Chymotrypsin; conditions: equilibrium constant for hemiketal formation; cited from earlier work
[5] = hydration of glyoxal keto group

| Compound | Ki ([1]; pH 7.2, 25 °C) | fold tighter binding on replacing the α-carboxylate group with a hydrogen atom [2] | KiIH/KiICOOH [2] | KH1 [3] | KH1(obs) [3, 5] | KHK [4] | KiIH/KiICHO or KiIH/KiICOCHO [2] | KiIH/KiICHO or KiIH/KiICOCHO ([2]; listed as Z-APF-COCHO) | KH1(obs) ([3]; hydration of aldehyde group) | Ki ([1]; 25 °C) |
| --- | --- | --- | --- | --- | --- | --- | --- | --- | --- | --- |
| Cbz-Ala-Ala-Phe-OH [ZAAF-COOH] | 532 ± 50 µM | 3–4 fold | 0.31 | – | – | – | – | – | – | – |
| CC(NC(=O)OCc1ccccc1)C(=O)N1CCCC1C(=O)NC(C=O)Cc1ccccc1 (stereo not drawn) [ZAPF-H, Z-Ala-Pro-Phe-H] (Cbz-Ala-Pro-Phe-aldehyde; configuration not given here) | 77.4 ± 6.4 µM | – | – | – | – | – | – | – | – | – |
| C[C@H](NC(=O)OCc1ccccc1)C(=O)N1CCC[C@H]1C(=O)N[C@@H](Cc1ccccc1)C(=O)C=O [ZAPF-COCHO] | 0.0335 µM | – | – | 0.023 | 1.28 ^c | 5270 | 2310 | 460–2300 | – | – |
| CC(NC(=O)OCc1ccccc1)C(=O)NC(C)C(=O)NC(Cc1ccccc1)C(=O)C=O (stereo not shown) [ZAAF-COCHO] | 0.365 µM | – | – | 0.0284 | 1.58 ^d | 1170 | 455 | – | – | – |
| C[C@H](NC(=O)OCc1ccccc1)C(=O)N[C@@H](C)C(=O)N[C@@H](Cc1ccccc1)C(=O)C=O [ZAAF-CHO, Z-Ala-Ala-Phe-CHO] | – | – | – | 0.25 | – | – | 100 | – | 13.9 ^e | 1.7 ± 0.4 µM |
| Cbz-Ala-Pro-Phe-OH [ZAPF-COOH] | 241 ± 7 µM | 3–4 fold | 0.32 | – | – | – | – | – | – | – |

From publication PMC7185411 (Biochimica et Biophysica Acta. Proteins and Proteomics, 2015)
